The source of these data is US5843900A (priority 1995, dated 1998).

Assay [1] deals with human BK2 receptor (Homo sapiens, UniProt P30411). In words: biochemical. Format: binding.
Assay [2] deals with hypotensive response to bradykinin. In words: Rat Blood Pressure: hypotensive response to bradykinin. To be noted: at the dose used in the carrageenan test. Format: in vivo. As to the method: Male rats were anesthetised with urethane, 1.25 g/kg, and cannulae were placed in the carotid artery and femoral vein for the injection and infusion of compounds and in the femoral artery for the recording of blood pressure. Standard hypotensive responses were obtained to repeated administration of bradykinin, 80 pM. These were repeated in the presence of increasing dose infusions of CP-0840. […] The selectivity of CP-0840 was assessed at a dose of 3 ug/kg/min. […] CP-0840 can be said to be a selective antagonist of bradykinin in vivo in the rat blood pressure assay (FIG. 9).

Assay [3] has as its system paw licking following formalin injection. To be noted: mouse, in vivo.
The subject of assay [4] is carrageenan induced edema in the rat hind paw. To be noted: in vivo.
The test system of assay [5] is mustard oil induced neurogenic inflammation in the rat hind paw. To be noted: in vivo.

Square brackets hold non-standard residues; d marks the D form. Peptide text beside a SMILES is read from it. * marks the point of attachment. X21 = CN1CC[C@]23c4c5ccc(OCCCCCCCCCCCC(=O)*)c4O[C@H]2[C@@H](O)CC[C@H]3[C@H]1C5; Hyp = O=C(O)[C@@H]1C[C@@H](O)CN1; dTic = O=C(O)[C@H]1Cc2ccccc2CN1; 2Thi = N[C@@H](Cc1cccs1)C(=O)O; Gly(N-cHex) = O=C(O)CNC1CCCCC1

human BK2 receptor, sequence (P30411 28-391): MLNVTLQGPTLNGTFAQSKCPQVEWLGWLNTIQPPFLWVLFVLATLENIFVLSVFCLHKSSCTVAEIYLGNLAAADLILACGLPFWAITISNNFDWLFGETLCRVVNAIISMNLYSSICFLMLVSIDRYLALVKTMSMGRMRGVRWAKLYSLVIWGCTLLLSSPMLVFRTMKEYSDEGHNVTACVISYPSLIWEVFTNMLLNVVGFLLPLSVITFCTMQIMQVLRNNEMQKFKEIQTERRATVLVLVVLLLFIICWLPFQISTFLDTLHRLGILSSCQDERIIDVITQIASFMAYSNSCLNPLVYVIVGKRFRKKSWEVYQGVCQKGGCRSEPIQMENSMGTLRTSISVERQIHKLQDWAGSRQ

The IC50 is the concentration that gives 50% inhibition. A high value points to lower potency. `CN1CC[C@]23c4c5ccc(OCc6cccc(C(=O)NCCC(=O)Nc7ccc(CC(=O)N[C@H](CCCNC(=N)N)C(=O)N[C@@H](CCCNC(=N)N)C(=O)N8CCC[C@H]8C(=O)N8C[C@H](O)C[C@H]8C(=O)NCC(=O)N[C@@H](Cc8cccs8)C(=O)N[C@@H](CO)C(=O)N8Cc9ccccc9C[C@@H]8C(=O)N(CC(=O)N[C@@H](CCCNC(=N)N)C(=O)O)C8CCCCC8)cc7)c6)c4O[C@H]2[C@@H](O)C=C[C@H]3[C@H]1C5` [CP 862] had an IC50 in assay [1] of 1 nM.

`CN1CC[C@]23c4c5ccc(OCCCCCCCCCCCC(=O)NCCCC[C@H](NC(=O)[C@@H]6C[C@@H](O)CN6C(=O)[C@@H]6CCCN6C(=O)[C@H](CCCNC(=N)N)NC(=O)[C@H](N)CCCNC(=N)N)C(=O)N[C@@H](Cc6cccs6)C(=O)N[C@@H](CO)C(=O)N6Cc7ccccc7C[C@@H]6C(=O)N(CC(=O)N[C@@H](CCCNC(=N)N)C(=O)O)C6CCCCC6)c4O[C@H]2[C@@H](O)CC[C@H]3[C@H]1C5` [CP 853] (H-[dR]RP[Hyp]K(X21)[2Thi]S[dTic][Gly(N-cHex)]R-OH) showed a concentration for half-maximal inhibition (IC50) in assay [1] of 63.1 nM.

In assay [1], `CN1CC[C@]23c4c5ccc(OCCCCCCCCCCCC(=O)NCCCC[C@H](NC(=O)CNC(=O)[C@@H]6C[C@@H](O)CN6C(=O)[C@@H]6CCCN6C(=O)[C@H](CCCNC(=N)N)NC(=O)[C@H](N)CCCNC(=N)N)C(=O)N[C@@H](CO)C(=O)N6Cc7ccccc7C[C@@H]6C(=O)N(CC(=O)N[C@@H](CCCNC(=N)N)C(=O)O)C6CCCCC6)c4O[C@H]2[C@@H](O)CC[C@H]3[C@H]1C5` [CP 831] (H-[dR]RP[Hyp]GK(X21)S[dTic][Gly(N-cHex)]R-OH) gave an IC50 of 126 nM.

In assay [1], `CN1CC[C@]23c4c5ccc(OCCCCCCCCCCCC(=O)N[C@H](CCCNC(=N)N)C(=O)N[C@@H](CCCNC(=N)N)C(=O)N6CCC[C@H]6C(=O)N6C[C@H](O)C[C@H]6C(=O)NCC(=O)N[C@@H](Cc6cccs6)C(=O)N[C@@H](CO)C(=O)N6Cc7ccccc7C[C@@H]6C(=O)N(CC(=O)N[C@@H](CCCNC(=N)N)C(=O)O)C6CCCCC6)c4O[C@H]2[C@@H](O)CC[C@H]3[C@H]1C5` [CP 695] had an IC50 of 1.26 nM.

`CN1CC[C@]23c4c5ccc(O)c4O[C@H]2[C@@H](OCCCc2cccc(C(=O)N[C@H](CCCNC(=N)N)C(=O)N[C@@H](CCCNC(=N)N)C(=O)N4CCC[C@H]4C(=O)N4C[C@H](O)C[C@H]4C(=O)NCC(=O)N[C@@H](Cc4cccs4)C(=O)N[C@@H](CO)C(=O)N4Cc6ccccc6C[C@@H]4C(=O)N(CC(=O)N[C@@H](CCCNC(=N)N)C(=O)O)C4CCCCC4)c2)C=C[C@H]3[C@H]1C5` [CP 902] showed an IC50 in assay [1] of 0.398 nM.

Turning to `CN1CC[C@]23c4c5ccc(O)c4O[C@H]2[C@@H](OCCCc2ccc(C(=O)N[C@H](CCCNC(=N)N)C(=O)N[C@@H](CCCNC(=N)N)C(=O)N4CCC[C@H]4C(=O)N4C[C@H](O)C[C@H]4C(=O)NCC(=O)N[C@@H](Cc4cccs4)C(=O)N[C@@H](CO)C(=O)N4Cc6ccccc6C[C@@H]4C(=O)N(CC(=O)N[C@@H](CCCNC(=N)N)C(=O)O)C4CCCCC4)cc2)C=C[C@H]3[C@H]1C5` [CP 905], in assay [1], the IC50 is 0.501 nM.

For “D-Arg-Arg-Pro-Hyp-Gly-Thi-Ser-D-Tic-NChg-Arg [CP-0597]”, the “duration of action against blood pressure responses to bradykinin” value in assay [2] is recorded as “greater than 6 h”. Besides, the “effect on first and second phase responses (paw licking time)” value in assay [3] was “no significant effect”. Besides, in assay [4], the “Percentage inhibition of the carrageenan paw edema, 3 h” value is listed as 66.3 and the “Percentage inhibition of the carrageenan paw edema, 6 h” value worked out at 0. The “effect on carrageenan edema response” value in assay [4] (sc) is on record as “significant inhibition from 0-3 h”. Moreover, in assay [5], the “effect on mustard oil edema response (Evan's blue dye)” value is listed as “without effect”.

In assay [1], `CN1CC[C@]23c4c5ccc(OCCCCCCCCCCCC(=O)NCCCC[C@H](NC(=O)[C@H](CCCNC(=N)N)NC(=O)[C@H](N)CCCNC(=N)N)C(=O)N6C[C@H](O)C[C@H]6C(=O)NCC(=O)N[C@@H](Cc6cccs6)C(=O)N[C@@H](CO)C(=O)N6Cc7ccccc7C[C@@H]6C(=O)N(CC(=O)N[C@@H](CCCNC(=N)N)C(=O)O)C6CCCCC6)c4O[C@H]2[C@@H](O)CC[C@H]3[C@H]1C5` [CP 851] (H-[dR]RK(X21)[Hyp]G[2Thi]S[dTic][Gly(N-cHex)]R-OH) had a half-maximal inhibitory concentration (IC50) of 39.8 nM.

`CN1CC[C@]23c4c5ccc(OCCCCCCCCCCCC(=O)NCCCC[C@H](NC(=O)[C@@H]6CCCN6C(=O)[C@H](CCCNC(=N)N)NC(=O)[C@H](N)CCCNC(=N)N)C(=O)NCC(=O)N[C@@H](Cc6cccs6)C(=O)N[C@@H](CO)C(=O)N6Cc7ccccc7C[C@@H]6C(=O)N(CC(=O)N[C@@H](CCCNC(=N)N)C(=O)O)C6CCCCC6)c4O[C@H]2[C@@H](O)CC[C@H]3[C@H]1C5` [CP 841] (H-[dR]RPK(X21)G[2Thi]S[dTic][Gly(N-cHex)]R-OH): the IC50 in assay [1] is 12.6 nM.

The compound `CN1CC[C@]23c4c5ccc(OCCCCCCCCCCCCCCC(=O)N[C@H](CCCNC(=N)N)C(=O)N[C@@H](CCCNC(=N)N)C(=O)N6CCC[C@H]6C(=O)N6C[C@H](O)C[C@H]6C(=O)NCC(=O)N[C@@H](Cc6cccs6)C(=O)N[C@@H](CO)C(=O)N6Cc7ccccc7C[C@@H]6C(=O)N(CC(=O)N[C@@H](CCCNC(=N)N)C(=O)O)C6CCCCC6)c4O[C@H]2[C@@H](O)CC[C@H]3[C@H]1C5` [CP 844] had an IC50 in assay [1] of 3.16 nM.

In assay [1], `CN1CC[C@]23c4c5ccc(O)c4O[C@H]2[C@@H](OCc2ccc(C(=O)N[C@H](CCCNC(=N)N)C(=O)N[C@@H](CCCNC(=N)N)C(=O)N4CCC[C@H]4C(=O)N4C[C@H](O)C[C@H]4C(=O)NCC(=O)N[C@@H](Cc4cccs4)C(=O)N[C@@H](CO)C(=O)N4Cc6ccccc6C[C@@H]4C(=O)N(CC(=O)N[C@@H](CCCNC(=N)N)C(=O)O)C4CCCCC4)cc2)C=C[C@H]3[C@H]1C5` [CP 906] showed a concentration for half-maximal inhibition (IC50) of 0.501 nM.

In assay [1], `CN1CC[C@]23c4c5ccc(O)c4O[C@H]2[C@@H](OCCCCCCCCCCCC(=O)N[C@H](CCCNC(=N)N)C(=O)N[C@@H](CCCNC(=N)N)C(=O)N2CCC[C@H]2C(=O)N2C[C@H](O)C[C@H]2C(=O)NCC(=O)N[C@@H](Cc2cccs2)C(=O)N[C@@H](CO)C(=O)N2Cc4ccccc4C[C@@H]2C(=O)N(CC(=O)N[C@@H](CCCNC(=N)N)C(=O)O)C2CCCCC2)CC[C@H]3[C@H]1C5` [CP 896] gave an IC50 of 2 nM.

For `CN1CC[C@]23c4c5ccc(OCCCCCCCCCCCC(=O)NCCCC[C@H](NC(=O)[C@H](N)CCCNC(=N)N)C(=O)N6CCC[C@H]6C(=O)N6C[C@H](O)C[C@H]6C(=O)NCC(=O)N[C@@H](Cc6cccs6)C(=O)N[C@@H](CO)C(=O)N6Cc7ccccc7C[C@@H]6C(=O)N(CC(=O)N[C@@H](CCCNC(=N)N)C(=O)O)C6CCCCC6)c4O[C@H]2[C@@H](O)CC[C@H]3[C@H]1C5` [CP 723] (H-[dR]K(X21)P[Hyp]G[2Thi]S[dTic][Gly(N-cHex)]R-OH), half-maximal inhibition in assay [1] (IC50) was put at 0.398 nM.

In turn, `CN1CC[C@]23c4c5ccc(O)c4O[C@H]2[C@@H](OCCCCCC(=O)N[C@H](CCCNC(=N)N)C(=O)N[C@@H](CCCNC(=N)N)C(=O)N2CCC[C@H]2C(=O)N2C[C@H](O)C[C@H]2C(=O)NCC(=O)N[C@@H](Cc2cccs2)C(=O)N[C@@H](CO)C(=O)N2Cc4ccccc4C[C@@H]2C(=O)N(CC(=O)N[C@@H](CCCNC(=N)N)C(=O)O)C2CCCCC2)CC[C@H]3[C@H]1C5` [CP 900] gave an IC50 in assay [1] of 1.58 nM.

In assay [1], `CN1CC[C@]23c4c5ccc(OCc6ccc(C(=O)NCCC(=O)Nc7ccc(CC(=O)N[C@H](CCCNC(=N)N)C(=O)N[C@@H](CCCNC(=N)N)C(=O)N8CCC[C@H]8C(=O)N8C[C@H](O)C[C@H]8C(=O)NCC(=O)N[C@@H](Cc8cccs8)C(=O)N[C@@H](CO)C(=O)N8Cc9ccccc9C[C@@H]8C(=O)N(CC(=O)N[C@@H](CCCNC(=N)N)C(=O)O)C8CCCCC8)cc7)cc6)c4O[C@H]2[C@@H](O)C=C[C@H]3[C@H]1C5` [CP 836] gave an IC50 of 1.26 nM.
